Experimental data published in publication PMC12668308, “A Novel Antimalarial Agent that Inhibits Protein Synthesis in Plasmodium falciparum” (Angewandte Chemie (International Ed. in English), 2025).

Legend:
Assay in all cases: iSPP profiling, P. falciparum lysate
Format in all cases: binding, Plasmodium falciparum
[1] = system: Uncharacterized protein (W7JQ86)
Method: (§1) P. falciparum NF54 lysates were extracted as described in ^[26^] . The parasite asynchronous culture was extracted once 3-5% parasitemia was reached. Saponin lysis was done as described in 2.2.10. Once the parasite pellet was obtained, 2.5 volumes of ice-cold lysis buffer (50 mM Tris/HCl pH 7.5 (Avantor), 5% glycerol (Sigma-Aldrich), 150 mM NaCl (Carl Roth), 1.5 mM MgCl2 (Sigma-Aldrich), 1 mM DTT (Carl Roth), 0.8% IGEPAL CA-630 (Sigma-Aldrich), 1X Halt Protease and Phosphatase Inhibitor-Cocktails EDTA-free (Thermo Fisher Scientific)) was added to the parasite pellet. The lysate solution was subjected to three cycles of flash freeze-thaw with liquid nitrogen and ddH2O at RT. The lysates were centrifuged at 20,000 g for 20 minutes at 4 °C. The soluble protein fraction (supernatant) was collected and the protein content was quantified using the BCA assay (Pierce™ BCA Protein Assay Kit, Thermo Fisher Scientific). The lysate was stored at -80 °C until further use.
(§2) The P. falciparum lysate was thawed on ice and diluted to 0.8 mg/mL. The lysate was aliquoted, and each aliquot was incubated with either a vehicle control (DMSO), 34 (dissolved in DMSO), or varying concentrations of 31 (dissolved in DMSO) at 0.01 µM, 0.1 µM, 10 µM, 50 µM, and 100 µM. Subsequently, the samples were incubated at room temperature for 30 minutes using a rotating mixer. After distribution into a 96-well plate, the samples were treated with increasing concentrations of A.E.A. (v/v) ranging from 14% to 28% (14, 16, 18, 20, 22, 24, 26, and 28%). Following a 20-minute incubation at 37°C with shaking at 750 rpm, the samples were centrifuged at 4400 g for 35 minutes to remove precipitated proteins. The soluble fractions were then pooled in equal volumes into a single sample using the Bravo Automated Liquid Handling Platform. The pooled samples were subsequently prepared for LC-MS/MS analysis.
(§3) The raw LFQ-DIA intensity values of biological replicates across all conditions were normalized to the median abundance using Excel. The normalized values were then log2 transformed in Perseus (v2.0.10.0).^[58^] Missing values were imputed from a normal distribution (width 0.3, down shift 1.5), and p-values were obtained using a two-sample t-test over replicates with a permutation-based false discovery rate correction (FDR 0.05). Volcano plots were generated in RStudio using the EnhancedVolcano package (v. 1.20.0), ^[59^] plotting proteins by statistical significance (y-axis: –Log10 p-value) versus the magnitude of change (x-axis: log2 fold change of protein intensities for each compound condition relative to the vehicle control). The heatmap was generated in Perseus (v2.0.10.0). Dose-dependent curves were generated using normalized protein intensity values, expressed as a ratio to the vehicle control. Plots were created in GraphPad Prism (v8.3.0) using a nonlinear regression model.

[2] = system: 40S ribosomal protein S24 (W7KAD9)
Method: as §1
as §2, with “The lysate was aliquoted, and each aliquot was incubated with either a vehicle control (DMSO), 34 (dissolved in DMSO), or varying concentrations of 31 (dissolved in DMSO) at 0.01 µM, 0.1 µM, 10 µM, 50 µM, and 100 µM.” left out
as §3

[3] = system: FACT complex subunit (W7KAC4)
Method: as §1
as §2, with “The lysate was aliquoted, and each aliquot was incubated with either a vehicle control (DMSO), 34 (dissolved in DMSO), or varying concentrations of 31 (dissolved in DMSO) at 0.01 µM, 0.1 µM, 10 µM, 50 µM, and 100 µM.” left out
as §3

DnaJ protein (W7JVI6) = system: DnaJ protein (W7JVI6)
Method: as §1
as §2, with “The lysate was aliquoted, and each aliquot was incubated with either a vehicle control (DMSO), 34 (dissolved in DMSO), or varying concentrations of 31 (dissolved in DMSO) at 0.01 µM, 0.1 µM, 10 µM, 50 µM, and 100 µM.” left out
as §3

[4] = system: Ubiquitin-like protein nedd8-like (W7JPX7); settings: 100 µM compound 34
Method: as §1, §2, §3

[5] = system: Uncharacterized protein (W7KDE4); settings: 100 µM compound 34
Method: as §1, §2, §3

[6] = system: Uncharacterized protein (W7KMZ2); settings: 100 µM compound 34
Method: as §1, §2, §3

[7] = system: Uncharacterized protein (W7JZL0); settings: 100 µM compound 34
Method: as §1, §2, §3

[8] = system: DNA repair and recombination protein RAD54 (W7K6H8); settings: 100 µM compound 34
Method: as §1, §2, §3

[9] = system: Plasmodium RESA N-terminal domain-containing protein (W7KFM4); settings: 100 µM compound 34
Method: as §1, §2, §3

[10] = system: Erythrocyte membrane protein 1 (W7JQ66;W7K7Z8;W7KA08;W7KI56;W7KJ57); settings: 100 µM compound 34
Method: as §1, §2, §3

[11] = system: Uncharacterized protein (W7KAL3); settings: 100 µM compound 34
Method: as §1, §2, §3

[12] = system: Uncharacterized protein (W7KAK7); settings: 100 µM compound 34
Method: as §1, §2, §3

[13] = system: Protein RFT1 homolog (W7JM37); settings: 100 µM compound 34
Method: as §1, §2, §3

[14] = system: Pre-mRNA branch site protein p14 (Fragment) (W7JRR7); settings: 100 µM compound 34
Method: as §1, §2, §3

[15] = system: Uncharacterized protein (W7JSC9); settings: 100 µM compound 34
Method: as §1, §2, §3

Antigen UB05 (W7JRY1) = settings: 100 µM compound 34
Method: as §1, §2, §3

[16] = system: Uncharacterized protein (W7K0G9); settings: 100 µM compound 34
Method: as §1, §2, §3

[17] = system: 2-C-methyl-D-erythritol 4-phosphate cytidylyltransferase (W7KNE8); settings: 100 µM compound 34
Method: as §1, §2, §3

In the case of `CN1CCN(Cc2ccc(O)c(NC(=O)c3cccc(Oc4cc(C(F)(F)F)ccn4)c3)c2)CC1` [Compound 31, N-(2-hydroxy-5-((4-methylpiperazin-1-yl)methyl)phenyl)-3-((4-(trifluoromethyl)pyridin-2-yl)oxy)benzamide], the log2FC ([1]; 10 µM) is reported as 0.49, the log2FC ([1]; 50 µM) is reported as 0.58 and the log2FC ([1]; 100 µM) is reported as 0.37. It also gave a log2FC ([1]; 10^-2 µM) of 0.40, a log2FC ([1]; 10^-3 µM) of 0.28 and a log2FC ([2]; 10 µM) of 0.51. For the same compound, the log2FC ([2]; 50 µM) was 0.70, the log2FC ([2]; 100 µM) was 0.57 and the log2FC ([2]; 10^-2 µM) was 0.44. For the same compound, the log2FC ([2]; 10^-3 µM) was 0.27, the log2FC ([3]; 10 µM) was 0.30 and the log2FC ([3]; 50 µM) was 0.55. The log2FC ([3]; 100 µM) was 0.41, the log2FC ([3]; 10^-2 µM) was 0.48 and the log2FC ([3]; 10^-3 µM) was 0.30. For the same compound, the log2FC (DnaJ protein (W7JVI6); 10 µM) was 0.38, the log2FC (DnaJ protein (W7JVI6); 50 µM) was 0.51 and the log2FC (DnaJ protein (W7JVI6); 100 µM) was 0.40. For the same compound, the log2FC (DnaJ protein (W7JVI6); 10^-2 µM) was 0.30 and the log2FC (DnaJ protein (W7JVI6); 10^-3 µM) was 0.12.

`O=C(Nc1cc(CN2CCOCC2)ccc1F)c1cccc(Oc2cc(C(F)(F)F)ccn2)c1` [Compound 34, N-(2-Fluoro-5-(morpholinomethyl)phenyl)-3-((4-(trifluoromethyl)pyridin-2-yl)oxy)benzamide] gave a log2FC [4] of 0.3658, a log2FC [5] of 0.5097 and a log2FC [6] of 0.3762. The log2FC [7] was -1.173, the log2FC [8] was -0.7564 and the log2FC [9] was 0.3623. The log2FC [10] was 0.3804, the log2FC [11] was -0.4853 and the log2FC [12] was -0.4093. For the same compound, the log2FC [13] was -0.6689, the log2FC [14] was 0.3601 and the log2FC [15] was 0.457. For the same compound, the log2FC (Antigen UB05 (W7JRY1)) was 0.5651, the log2FC [16] was -0.3881 and the log2FC [17] was -1.336.
